Consider 1 molecule from BindingDB's records for patent US20250019387 (Frontier Medicines, 2025).

In general, IC50 refers to the concentration needed to halve the response being measured. Higher therefore signals a need for much substance.

The target of this test is GTPase KRas [G12C,C51S,C80L,C118S]/RAF proto-oncogene serine/threonine-protein kinase (Homo sapiens, UniProt P01116, C118S/C51S/C80L/G12C). The test can be described thus: Inhibition of KRASG12C and cRAF Binding. As for the experimental part:
Compounds were diluted in 100% DMSO and each compound concentration was spotted at 200 nl/well onto low volume, white 384 well plates. […] Plates were incubated for 19-20 hours. A mixture of RBD and the AlphaScreen streptavidin donor and glutathione acceptor beads diluted in 25 mM Hepes, pH 7.4, 150 mM NaCl, 5 mM MgCl2, 0.01% TritonX-100 and 2% DMSO was then added at 10 ul/well and incubated for 60-90 minutes before the samples were read for emission at 570 nm after excitation of the donor beads at 680 nm. All incubations were performed at room temperature. […] IC50s were determined using nonlinear regression fit of [inhibitor]vs. response (4 parameters).

Sequence of GTPase KRas [G12C,C51S,C80L,C118S]/RAF proto-oncogene serine/threonine-protein kinase (P01116 1-169 G12C/C51S/C80L/C118S): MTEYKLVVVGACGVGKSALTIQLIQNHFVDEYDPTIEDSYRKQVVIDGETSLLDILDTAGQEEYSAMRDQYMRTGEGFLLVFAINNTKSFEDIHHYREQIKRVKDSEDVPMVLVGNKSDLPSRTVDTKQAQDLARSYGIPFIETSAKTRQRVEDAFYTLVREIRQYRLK

Turning to `C=CC(=O)[C@]12CCN(c3nc(OC[C@@H]4CCCN4C)nc4c3CCN(c3cccc5cccc(Cl)c35)C4)C[C@H]1C2` [US20250019387, Example 44], the 50% inhibitory concentration (IC50) is under 0.01 µM.
